Assay: Solubility parameter (Hildebrand parameter) values for selected solvents and polyacrylamide
Details: solvent with polyacrylamide homopolymer, δ 21
From the text: Determination of a suitable lower level alcohol, glycol, ketone, or mixtures thereof may be conducted using the solubility. The solubility of an amorphous polymer in a given solvent is governed by the Gibbs free energy of mixing given by Equation (1): ΔGm=ΔHm−TΔSm (1 ) ΔGm is the free energy change of the system upon mixing. ΔHm and ΔSm are the enthalpy and entropy change upon mixing, respectively, and T is the absolute temperature. When the free energy of mixing is less than zero (ΔGm<0) for a given polymer and solvent (or solvent mixture thereof), a single-phase system is obtained and mixing occurs spontaneously.
Solubility parameters, originally developed to describe enthalpy of mixing with simple nonpolar solvents, have been extended to describe the interactions of polymers and polar solvent. The enthalpy of mixing of such systems is expressed in a form like Equation (2):
[formula] […]
The units of δ may be difficult to rationalize. They are generally expressed as units of MPa½ or (cal/cm^3)^1/2. One simple way to understand these units is to note that Equation (4) calls for a solution in terms of a quantity of energy. It can be readily seen that substitution of δ values in terms of (cal/cm^3)^1/2 or MPa½ into Equation (4) results in a quantity of energy in terms of calories or joules, respectively, after unit cancellation (1 MPa=1 kJ/m^3). […]

Compound | (δ1 − δ2)^2 PAM (cohesive energy difference parameter)
CC(C)=O [Acetone] | 123.2
n-Propyl alcohol | 82.8

Reference: patent US7670967B2, “Dispersible alcohol/cleaning wipes via topical or wet-end application of acrylamide or vinylamide/amine polymers” (Kimberly-Clark Worldwide, Inc., priority 2004, dated 2010)
